In patent publication US6037341A, “Carbapenem derivatives” (Eisai Co., Ltd., priority 1994, dated 2000):
In brackets after ≈: the same amount, converted by molar mass.

How the values were obtained:
Type in all cases: cell-based
[1] = test system: P. aeruginosa E03441/WT; assay: MIC, P. aeruginosa E03441/WT; settings: Pseudomonas aeruginosa
[2] = test system: P. aeruginosa E03441/R24; assay: MIC, P. aeruginosa E03441/R24; settings: Pseudomonas aeruginosa
[3] = test system: H. influenzae IID1638; assay: MIC, H. influenzae IID1638; settings: Haemophilus influenzae
[4] = test system: P. aeruginosa E03441/SKR2-14; assay: MIC, P. aeruginosa E03441/SKR2-14; settings: Pseudomonas aeruginosa, E03441/SKR214
[5] = test system: S. aureus E31295; assay: MIC, S. aureus E31295; settings: Staphylococcus aureus
[6] = test system: P. aeruginosa E03441/SKR2; assay: MIC, P. aeruginosa E03441/SKR2; settings: Pseudomonas aeruginosa
[7] = test system: P. aeruginosa E03441/SKR2/I-2; assay: MIC, P. aeruginosa E03441/SKR2/I-2; settings: Pseudomonas aeruginosa
[8] = test system: E. coli CS109; assay: MIC, E. coli CS109; settings: Escherichia coli
[9] = test system: P. aeruginosa E03763; assay: MIC, P. aeruginosa E03763; settings: Pseudomonas aeruginosa
[10] = test system: P. aeruginosa NCTC10490; assay: MIC, P. aeruginosa NCTC10490; settings: Pseudomonas aeruginosa
[11] = test system: P. aeruginosa PA01; assay: MIC, P. aeruginosa PA01; settings: Pseudomonas aeruginosa
[12] = test system: P. aeruginosa E03402; assay: MIC, P. aeruginosa E03402; settings: Pseudomonas aeruginosa

Work on `C[C@@H](O)[C@H]1C(=O)N2C(C(=O)O)=C(S[C@@H]3CN[C@H](C(O)C4CCNC4)C3)[C@H](C)[C@H]12` (stereo partly drawn) yielded an MIC [1] of 0.2 µg/mL (≈ 0.486 µM), an MIC [2] of 3.13 µg/mL (≈ 7.61 µM) and an MIC [3] of 0.2 µg/mL (≈ 0.486 µM). It also gave an MIC [4] of 0.1 µg/mL (≈ 0.243 µM), an MIC [5] of 0.1 µg/mL (≈ 0.243 µM) and an MIC [6] of 0.2 µg/mL (≈ 0.486 µM). The MIC [7] was 0.4 µg/mL (≈ 0.972 µM), the MIC [8] was 0.05 µg/mL (≈ 0.121 µM) and the MIC [9] was 0.8 µg/mL (≈ 1.94 µM). The MIC [10] was 0.1 µg/mL (≈ 0.243 µM), the MIC [11] was 0.2 µg/mL (≈ 0.486 µM) and the MIC [12] was 0.1 µg/mL (≈ 0.243 µM).
